{
  "source": "paper PMC12812009",
  "about": "“Optimization of 4‐Amino‐2‐Pyridone Inhibitors of Proprotein Convertase Subtilisin/Kexin Type 9: Integrating Structure–Activity and Structure–Metabolism Relationships” (Chemmedchem, 2025)",
  "origin": "cited, not measured here",
  "tested_on": "secreted PCSK9",
  "design": "method as in PMID 38160616",
  "settings": "5 µM; cited from earlier work",
  "data": [
    {"smiles": "Cc1cc(NCc2ccc(C(F)(F)F)cc2)cc(=O)n1Cc1ccc(C(F)(F)F)cc1", "note": "[Compound 5c]", "values": [
      {"measurement": "PCSK9 secretion from HepG2 cells (in words)", "result": "effectively reduced PCSK9 secretion"}
    ]}
  ]
}
